In brackets after ≈: the same amount, converted by molar mass. Where two headings read alike, the source gives them in different places.
Tests used:
Format in all cases: cell-based
Pseudomonas aeruginosa [1] = assay: Utility in water and oil emulsions (3.3% cutting oil emulsions); details: 28° C., weekly reinoculation, read-out: Minimum Inhibitory Concentration Range
Description: The utility of the 2-chloro-3-oxobutyramide derivatives in water and oil emulsions is illustrated below using a commercially available cutting oil. In running these tests, two-fold serial dilutions of 6% solutions of the compound in dimethylformamide was added to 3.3% cutting oil emulsions. The emulsions were prepared by diluting with water a commercially available cutting oil concentrate. The emulsions were inoculated with a culture of Pseudomonas aeruginosa and incubated at 28° C. on a rotary shaker. At weekly intervals, the emulsions were examined for bacteria by conventional streak-plate methods. The emulsions were then reinoculated with Pseudomonas aeruginosa and reincubated. […] indicate the activity range for that compound.

Pseudomonas aeruginosa [2] = assay: Utility as a cosmetic preservative (cosmetic lotion); details: weekly reinoculation
Description: (§1) The 2-Chloro-3-oxobutyramide derivatives are effective cosmetic preservatives. Two-fold serial dilutions of 6% solutions of the 2-haloacetoacetic acid derivatives in dimethylformamide were added to a cosmetic lotion of the following formulation: |Stearic acid 1.4 g |Arlacel 60 (sorbitan |monostearate) 0.7 g |Tween 20 Polyoxethylene |(20) sorbitan |monostearate 1.6 g |Distilled water 94.0 g The lotions were inoculated with both Pseudomonas aeruginosa and Aspergillus niger and incubated at 28° C. At weekly intervals, the lotions were examined for microorganisms by conventional streak-plate methods or by macroscopic observation. The lotions were then reinoculated with the test organisms and reincubated.

Aspergillus niger [3] = assay: as above; details: weekly reinoculation
Description: as §1

P. aeruginosa = assay: Effectiveness as slimicide for pulp and paper mill water systems; details: 62.5 = lowest concentration tested, no growth at it
Description: (§2) Various quantities of a 6% solution of this compound in dimethylformamide were incorporated into 24 ml of a test substrate composed as follows: 84.4 g Whatman No. 2 powdered cellulose 2.6 g Sodium nitrate 1.0 g Calcium sulfate 6.5 g Maltose 1.0 g Nutrient Broth, Difco 10.0 ml Mersize Rm […] (Monsanto) 2.5 ml 2% Alum 900 ml Distilled water The samples were inoculated with four different organisms and incubated at 28° C. At weekly intervals the samples were examined for the presence of microbial growth and reinoculated during a total incubation period of four weeks.

A. niger = assay: as above; details: range: growth at lower, none at higher, 62.5 = lowest concentration tested, no growth at it
Description: as §2

P. piscarium = assay: as above; details: read-out: Effectiveness as slimicide (inhibitory concentration range)
Description: as §2

E. aerogenes = assay: as above; details: Klebsiella aerogenes, range: growth at lower, read-out: Effectiveness as slimicide (inhibitory concentration range)
Description: as §2

Pseudomonas aeruginosa [4] = assay: General antimicrobial activity, 5-fold serial dilution test in agar (MIC); details: 37° C., 48 hours, growth only at lower concentration of range, read-out: minimum inhibitory concentration (MIC), B3
Description: (§3) General antibacterial and antifungal activity was evaluated by a 5-fold serial dilution test in agar. In this test, compounds were prepared as 6% solutions in dimethylformamide or ethanol. The 6% solution was then 5-fold serially diluted in test tubes to give the desired concentrations when mixed with agar and poured into sterile Petri dishes. Tryptone glucose extract agar was used for the bacterial testing; mildew glucose agar for the fungal testing. The bacterial plates were spot inoculated with 24-hour nutrient broth cultures and incubated at 37° C. for 48 hours. The fungal plates were spot inoculated with spore suspensions and incubated at 28° C. for seven days. At the end of the incubation periods, all plates were examined for growth. The minimum inhibitory concentration (MIC) for each organism is expressed in Table I. In the ranges presented, growth is observed only at the lower concentration.
(§4) The activity is presented in Tabular Form (Table I) using the following key.

Aspergillus niger [5] = assay: as above; details: 168 h, 28° C., seven days, growth only at lower concentration of range, read-out: minimum inhibitory concentration (MIC), F1
Description: as §3, §4

Penicillium piscarium = assay: as above; details: 168 h, 28° C., seven days, growth only at lower concentration of range, read-out: minimum inhibitory concentration (MIC), F3
Description: as §3, §4

Proteus vulgaris = assay: as above; details: 37° C., 48 hours, growth only at lower concentration of range, read-out: minimum inhibitory concentration (MIC), B4
Description: as §3, §4

Escherichia coli = assay: as above; details: 37° C., 48 hours, growth only at lower concentration of range, read-out: minimum inhibitory concentration (MIC), B2
Description: as §3, §4

Staphylococcus aureus = assay: as above; details: 37° C., 48 hours, growth only at lower concentration of range, read-out: minimum inhibitory concentration (MIC), B1
Description: as §3, §4

Bacillus subtilis = assay: as above; details: 37° C., 48 hours, growth only at lower concentration of range, read-out: minimum inhibitory concentration (MIC), B5
Description: as §3, §4

Aspergillus oryzae = assay: as above; details: 168 h, 28° C., seven days, growth only at lower concentration of range, read-out: minimum inhibitory concentration (MIC), F2
Description: as §3, §4

Aureobasidium pullulans = assay: as above; details: 168 h, 28° C., seven days, growth only at lower concentration of range, read-out: minimum inhibitory concentration (MIC), F4
Description: as §3, §4

[6] = Week 1, 3.3% cutting oil emulsion
[7] = Week 2, 3.3% cutting oil emulsion
[8] = Week 3, 3.3% cutting oil emulsion
[9] = Week 4, 3.3% cutting oil emulsion

Row | Structure (SMILES) | MIC (Pseudomonas aeruginosa [1]; [6]) [mg/L] | MIC (Pseudomonas aeruginosa [1]; [7]) [mg/L] | MIC (Pseudomonas aeruginosa [1]; [8]) [mg/L] | MIC (Pseudomonas aeruginosa [1]; [9]) [mg/L] | minimum inhibitory concentration effective in preventing microbial growth (Pseudomonas aeruginosa [2]; Week 1, 28° C.) | minimum inhibitory concentration effective in preventing microbial growth (Pseudomonas aeruginosa [2]; Week 2, 28° C.) | minimum inhibitory concentration effective in preventing microbial growth (Pseudomonas aeruginosa [2]; Week 3, 28° C.) | minimum inhibitory concentration effective in preventing microbial growth (Pseudomonas aeruginosa [2]; Week 4, 28° C.) | minimum inhibitory concentration effective in preventing microbial growth (Aspergillus niger [3]; Week 1, 28° C.) | minimum inhibitory concentration effective in preventing microbial growth (Aspergillus niger [3]; Week 2, 28° C.) | minimum inhibitory concentration effective in preventing microbial growth (Aspergillus niger [3]; Week 3, 28° C.) | minimum inhibitory concentration effective in preventing microbial growth (Aspergillus niger [3]; Week 4, 28° C.) | MIC (Pseudomonas aeruginosa [4]) [mg/L] | MIC (Aspergillus niger [5]) [mg/L] | MIC (Penicillium piscarium) [mg/L] | MIC (Proteus vulgaris) [mg/L] | MIC (Escherichia coli) [mg/L] | MIC (Staphylococcus aureus) [mg/L] | MIC (Bacillus subtilis) [mg/L] | MIC (Aspergillus oryzae) [mg/L] | other results
1 | CC(=O)NC(=O)C(Cl)C(C)=O (stereo not shown) [N-Acetyl-2-Chloro-3-oxobutyramide, N-Acetyl-2-chloro-3-oxobutyramide] | 32 to 63 (≈ 180 to 355 µM) | 63 to 125 (≈ 355 to 704 µM) | 125 to 500 (≈ 704 to 2820 µM) | 125 to 500 (≈ 704 to 2820 µM) | 5 (63-125 mcg/gm) | 5 (63-125 mcg/gm) | 4 (125-250 mcg/gm) | 4 (125-250 mcg/gm) | 5 (63-125 mcg/gm) | 4 (125-250 mcg/gm) | 3 (250-500 mcg/gm) | 2 (500-1000 mcg/gm) | 15.3 to 76.8 (≈ 86.2 to 432 µM) | 76.8 to 384 (≈ 432 to 2160 µM) | 76.8 to 384 (≈ 432 to 2160 µM) | 76.8 to 384 (≈ 432 to 2160 µM) | 15.3 to 76.8 (≈ 86.2 to 432 µM) | 76.8 to 384 (≈ 432 to 2160 µM) | 76.8 to 384 (≈ 432 to 2160 µM) | 76.8 to 384 (≈ 432 to 2160 µM) | MIC (P. aeruginosa; Pseudomonas aeruginosa, week 1, 28° C., read-out: Effectiveness as slimicide (inhibitory concentration range)): 62.5 mg/L (≈ 352 µM); Effectiveness as slimicide (inhibitory concentration range) (P. aeruginosa; week 2, 28° C.): 62.5 µg/mL; Effectiveness as slimicide (inhibitory concentration range) (P. aeruginosa; week 3, 28° C.): 62.5 µg/mL; Effectiveness as slimicide (inhibitory concentration range) (P. aeruginosa; week 4, 28° C.): 62.5 µg/mL; MIC (A. niger; Aspergillus niger, week 1, 28° C., read-out: Effectiveness as slimicide (inhibitory concentration range)): 62.5 to 125 mg/L (≈ 352 to 704 µM); Effectiveness as slimicide (inhibitory concentration range) (A. niger; week 2, 28° C.): 62.5 to 125 µg/mL; Effectiveness as slimicide (inhibitory concentration range) (A. niger; week 3, 28° C.): 62.5 to 125 µg/mL; Effectiveness as slimicide (inhibitory concentration range) (A. niger; week 4, 28° C.): 62.5 to 125 µg/mL; MIC (P. piscarium; week 1, 28° C., 62.5 = lowest concentration tested, no growth at it): 62.5 mg/L (≈ 352 µM); MIC (P. piscarium; week 2, 28° C., range: growth at lower, none at higher concentration): 62.5 to 125 mg/L (≈ 352 to 704 µM); MIC (P. piscarium; week 3, 28° C., range: growth at lower, none at higher concentration): 62.5 to 125 mg/L (≈ 352 to 704 µM); MIC (P. piscarium; week 4, 28° C., range: growth at lower, none at higher concentration): 62.5 to 125 mg/L (≈ 352 to 704 µM); MIC (E. aerogenes; week 1, 28° C., none at higher, 62.5 = lowest concentration tested, no growth at it): 62.5 to 125 mg/L (≈ 352 to 704 µM); MIC (E. aerogenes; week 2, 28° C., none at higher, 62.5 = lowest concentration tested, no growth at it): 125 to 250 mg/L (≈ 704 to 1410 µM); MIC (E. aerogenes; week 3, 28° C., none at higher concentration): 250 to 500 mg/L (≈ 1410 to 2820 µM); MIC (E. aerogenes; week 4, 28° C., none at higher concentration): 250 to 500 mg/L (≈ 1410 to 2820 µM); MIC (Aureobasidium pullulans): 76.8 to 384 mg/L (≈ 432 to 2160 µM)
2 | CCOC(=O)NC(=O)C(Cl)C(C)=O (stereo not shown) [R1=H, R2=COOC2 H5, N-Carboethoxy-2-chloroacetoacetamide] | 32 to 63 (≈ 154 to 303 µM) | 63 to 125 (≈ 303 to 602 µM) | 63 to 125 (≈ 303 to 602 µM) | 125 to 500 (≈ 602 to 2410 µM) | 5 (63-125 mcg/gm) | 4 (125-250 mcg/gm) | 4 (125-250 mcg/gm) | 4 (125-250 mcg/gm) | 4 (125-250 mcg/gm) | 3 (250-500 mcg/gm) | 3 (250-500 mcg/gm) | 3 (250-500 mcg/gm) | 76.8 to 384 (≈ 370 to 1850 µM) | 76.8 to 384 (≈ 370 to 1850 µM) | 76.8 to 384 (≈ 370 to 1850 µM) | 76.8 to 384 (≈ 370 to 1850 µM) | 76.8 to 384 (≈ 370 to 1850 µM) | 76.8 to 384 (≈ 370 to 1850 µM) | 76.8 to 384 (≈ 370 to 1850 µM) | 76.8 to 384 (≈ 370 to 1850 µM) | MIC (Aureobasidium pullulans): 76.8 to 384 mg/L (≈ 370 to 1850 µM)

From patent US4247712A, “Preservation of aqueous systems with 2-chloro-3-oxobutyramide derivatives” (Givaudan Corporation, priority 1979, dated 1981)
